“And” between values parts separate entries of the source, which are not always exact repeats. Identical values can stand only once. Toxic doses and inconclusive results are not listed.

Among the data in PubChem BioAssay AID248 (DTP/NCI, 2004) are T/C values, retold here.

The assay concerns L1210 leukemia ip in BDF1 mice, survival T/C. The experiment in a line: NCI In Vivo Anticancer Drug Screen. Data for tumor model L1210 Leukemia (intraperitoneal) in B6D2F1 (BDF1) mice. Conditions: higher = longer survival. The gist of the method:
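Mice bearing the transplanted tumor received compound or vehicle. Survival of the treated group was divided by that of the vehicle-treated control group to give the ratio.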

Where [1] appears, read: endpoint: mean survival time, dose: 50.0 mg/kg/injection, schedule: Q01DX009 (ip), vehicle: Klucel (hydroxypropylcellulose) (HPC).
[2] abbreviates: endpoint: mean survival time, dose: 100.0 mg/kg/injection, schedule: Q01DX001 (ip), vehicle: saline.
The mark [3] stands for this setting: endpoint: mean survival time, dose: 100.0 mg/kg/injection, schedule: Q01DX009 (ip), vehicle: Klucel (hydroxypropylcellulose) (HPC).
Where [4] appears, read: endpoint: mean survival time, dose: 200.0 mg/kg/injection, schedule: Q01DX001 (ip), vehicle: saline.
[5] abbreviates: endpoint: mean survival time, dose: 200.0 mg/kg/injection, schedule: Q01DX009 (ip), vehicle: Klucel (hydroxypropylcellulose) (HPC).
Where [6] appears, read: endpoint: mean survival time, dose: 400.0 mg/kg/injection, schedule: Q01DX001 (ip), vehicle: saline.
Where [7] appears, read: endpoint: mean survival time, dose: 100.0 mg/kg/injection, schedule: Q04DX002 (ip), vehicle: saline with Tween-80.
Setting [8] is: endpoint: mean survival time, dose: 200.0 mg/kg/injection, schedule: Q04DX002 (ip), vehicle: saline with Tween-80.
[9] abbreviates: endpoint: mean survival time, dose: 400.0 mg/kg/injection, schedule: Q04DX002 (ip), vehicle: saline with Tween-80.
Setting [10] is: endpoint: mean survival time, dose: 50.0 mg/kg/injection, schedule: Q01DX001 (ip), vehicle: saline.
[11] abbreviates: endpoint: mean survival time, dose: 50.0 mg/kg/injection, schedule: Q01DX009 (ip), vehicle: saline.
Setting [12] is: endpoint: mean survival time, dose: 100.0 mg/kg/injection, schedule: Q01DX009 (ip), vehicle: saline.
The mark [13] stands for this setting: endpoint: mean survival time, dose: 100.0 mg/kg/injection, schedule: Q01DX001 (ip), vehicle: carboxymethylcellulose (CMC).
The mark [14] stands for this setting: endpoint: mean survival time, dose: 200.0 mg/kg/injection, schedule: Q01DX001 (ip), vehicle: carboxymethylcellulose (CMC).
[15] abbreviates: endpoint: mean survival time, dose: 100.0 mg/kg/injection, schedule: Q01DX009 (ip), vehicle: saline with Tween-80.
Setting [16] is: endpoint: mean survival time, dose: 200.0 mg/kg/injection, schedule: Q01DX009 (ip), vehicle: saline with Tween-80.
[17] abbreviates: endpoint: mean survival time, dose: 100.0 mg/kg/injection, schedule: Q04DX003 (ip), vehicle: saline.
[18] abbreviates: endpoint: mean survival time, dose: 200.0 mg/kg/injection, schedule: Q04DX003 (ip), vehicle: saline.

As to `ClC/C=C/C[P+](c1ccccc1)(c1ccccc1)c1ccccc1`, the T/C was 89 % of control (endpoint: mean survival time, dose: 1.56 mg/kg/injection, schedule: Q01DX009 (ip), vehicle: saline); 99 % of control (endpoint: mean survival time, dose: 3.12 mg/kg/injection, schedule: Q01DX009 (ip), vehicle: saline); 95 % of control (endpoint: mean survival time, dose: 6.25 mg/kg/injection, schedule: Q01DX009 (ip), vehicle: saline).
For `C[n+]1c(/C=C/c2ccc(O)c3ccccc23)ccc2ccccc21`, the T/C (endpoint: mean survival time, dose: 75.0 mg/kg/injection, schedule: Q01DX001 (ip), vehicle: carboxymethylcellulose (CMC)) was 92 % of control and the T/C (endpoint: mean survival time, dose: 150.0 mg/kg/injection, schedule: Q01DX001 (ip), vehicle: carboxymethylcellulose (CMC)) was 97 % of control.
Regarding `CCCCCCCCCCCCCCCCCCOc1ccc(Cl)cc1Cl`, the T/C (endpoint: mean survival time, dose: 100.0 mg/kg/injection, schedule: Q04DX002 (ip), vehicle: other) is 98 % of control; the T/C (endpoint: mean survival time, dose: 200.0 mg/kg/injection, schedule: Q04DX002 (ip), vehicle: other) was 102 % of control; the T/C (endpoint: mean survival time, dose: 400.0 mg/kg/injection, schedule: Q04DX002 (ip), vehicle: other) is 102 % of control.
With `CC(C)Oc1ccc(Nc2ccccc2)cc1`, the T/C under setting [1] is 100 % of control; the T/C under setting [2] was 96 % of control; the T/C under setting [3] is 99 % of control; the T/C under setting [4] is 107 % of control; the T/C under setting [5] was 100 % of control; the T/C under setting [6] is 88 % of control.
Consider `O=[N+]([O-])c1ccc(/C=C/c2nnc(/C=C/c3ccc([N+](=O)[O-])cc3)o2)cc1`, for which the T/C is, setting by setting: (endpoint: mean survival time, dose: 50.0 mg/kg/injection, schedule: Q04DX002 (ip), vehicle: saline with Tween-80) 100 % of control; under setting [7], 89 % of control; under setting [8], 92 % of control; under setting [9], 100 % of control.
Turning to `C=C(C)CCc1ccccc1`, the T/C under setting [10] is 102 % of control, the T/C under setting [2] is 104 % of control and the T/C under setting [4] was 96 % of control.
Regarding `CCN(CC)CCNc1ccc(CO)c2oc3ccccc3c(=O)c12`, the T/C is 99 % of control under setting [11]; 96 % of control under setting [12]; 99 % of control (endpoint: mean survival time, dose: 200.0 mg/kg/injection, schedule: Q01DX009 (ip), vehicle: saline).
Consider `O=C(O)C(=O)O.[Co+3].[NH-]C(Cc1ccccc1)C(=O)[O-].[NH-]CCN(CC[NH-])CC[NH-]` (centres undefined), for which the T/C under setting [10] was 110 % of control, the T/C under setting [2] was 105 % of control, the T/C under setting [4] was 104 % of control and the T/C under setting [6] is 102 % of control.
Regarding `c1ccc2c3c(cc(C4CCCC4)c2c1)CCCC3`, the T/C is 88 % of control under setting [13] and 91 % of control under setting [14].
With `CC(C)(C(=O)O)c1ccccc1`, the T/C runs as follows: (endpoint: mean survival time, dose: 100.0 mg/kg/injection, schedule: Q01DX001 (ip), vehicle: saline with Tween-80) 96 % of control; (endpoint: mean survival time, dose: 200.0 mg/kg/injection, schedule: Q01DX001 (ip), vehicle: saline with Tween-80) 96 % of control; (endpoint: mean survival time, dose: 400.0 mg/kg/injection, schedule: Q01DX001 (ip), vehicle: saline with Tween-80) 96 % of control.
As to `CCCCCCCCCCCCN(C)S(=O)(=O)c1ccc(Cl)c(N)c1`, the T/C is 95 % of control under setting [15]; 91 % of control (endpoint: mean survival time, dose: 100.0 mg/kg/injection, schedule: Q04DX003 (ip), vehicle: Klucel (hydroxypropylcellulose) (HPC)); 89 % of control under setting [16]; 108 % of control (endpoint: mean survival time, dose: 200.0 mg/kg/injection, schedule: Q04DX003 (ip), vehicle: Klucel (hydroxypropylcellulose) (HPC)); 93 % of control (endpoint: mean survival time, dose: 400.0 mg/kg/injection, schedule: Q01DX009 (ip), vehicle: saline with Tween-80); 89 % of control (endpoint: mean survival time, dose: 400.0 mg/kg/injection, schedule: Q04DX003 (ip), vehicle: Klucel (hydroxypropylcellulose) (HPC)).
As to `CCNc1nc(Cl)nc(-c2cn(-c3ccccc3)c3ccccc23)n1`, the T/C is 93 % of control under setting [2]; 101 % of control under setting [15]; 99 % of control under setting [17]; 90 % of control under setting [4]; 92 % of control under setting [16]; 92 % of control under setting [18]. Moreover, the T/C by setting is: under setting [6], 88 % of control; (endpoint: mean survival time, dose: 400.0 mg/kg/injection, schedule: Q04DX003 (ip), vehicle: saline) 94 % of control.
Turning to `C1CCC2C(C1)CCC1C3CCCC3OCN21` (centres undefined), the T/C is 96 % of control under setting [7], 96 % of control under setting [8] and 93 % of control under setting [9].
With `CN(C)N=Nc1cccc(C(N)=O)c1`, the T/C is, setting by setting: (endpoint: mean survival time, dose: 5.0 mg/kg/injection, schedule: Q01DX009 (ip), vehicle: Klucel (hydroxypropylcellulose) (HPC)) 104 % of control; (endpoint: mean survival time, dose: 10.0 mg/kg/injection, schedule: Q01DX009 (ip), vehicle: Klucel (hydroxypropylcellulose) (HPC)) 115 % of control; (endpoint: mean survival time, dose: 20.0 mg/kg/injection, schedule: Q01DX009 (ip), vehicle: Klucel (hydroxypropylcellulose) (HPC)) 121 % of control; (endpoint: median survival time, dose: 39.0 mg/kg/injection, schedule: Q01DX009 (ip), vehicle: steriod suspending solution) 150 % of control; (endpoint: median survival time, dose: 65.0 mg/kg/injection, schedule: Q01DX001 (ip), vehicle: steriod suspending solution) 105 % of control; (endpoint: median survival time, dose: 65.0 mg/kg/injection, schedule: Q01DX009 (ip), vehicle: steriod suspending solution) 95 % of control. In addition, the T/C runs as follows: (endpoint: median survival time, dose: 108.0 mg/kg/injection, schedule: Q01DX001 (ip), vehicle: steriod suspending solution) 120 % of control; (endpoint: median survival time, dose: 180.0 mg/kg/injection, schedule: Q04DX003 (ip), vehicle: steriod suspending solution) 105 % of control.
In the case of `Nc1nc([Se])c2cc[nH]c2n1`, the T/C was 107 % of control (endpoint: mean survival time, dose: 12.5 mg/kg/injection, schedule: Q01DX009 (ip), vehicle: water); 102 % of control (endpoint: mean survival time, dose: 25.0 mg/kg/injection, schedule: Q01DX009 (ip), vehicle: water); 97 % of control (endpoint: mean survival time, dose: 25.0 mg/kg/injection, schedule: Q04DX003 (ip), vehicle: water); 104 % of control (endpoint: mean survival time, dose: 50.0 mg/kg/injection, schedule: Q01DX009 (ip), vehicle: water); 102 % of control (endpoint: mean survival time, dose: 50.0 mg/kg/injection, schedule: Q04DX003 (ip), vehicle: water); 94 % of control and 95 % of control (endpoint: mean survival time, dose: 100.0 mg/kg/injection, schedule: Q04DX003 (ip), vehicle: water).
Turning to `O=C(O)CCCl`, the T/C is 90 % of control under setting [10]; 98 % of control under setting [1]; 92 % of control under setting [3]; 104 % of control under setting [17]; 89 % of control under setting [4]; 92 % of control under setting [5]. Also, the T/C under setting [18] was 98 % of control.
As for `O=CNc1ncnn1C(=S)NCc1ccccc1`, the T/C runs as follows: under setting [11], 105 % of control; under setting [12], 111 % of control.
Take `O=C1C=CC(=NCl)C=C1`: the T/C is, setting by setting: (endpoint: mean survival time, dose: 1.25 mg/kg/injection, schedule: Q01DX015 (ip), vehicle: carboxymethylcellulose (CMC)) 92 % of control; (endpoint: mean survival time, dose: 2.5 mg/kg/injection, schedule: Q01DX015 (ip), vehicle: carboxymethylcellulose (CMC)) 91 % of control; (endpoint: mean survival time, dose: 5.0 mg/kg/injection, schedule: Q01DX001 (ip), vehicle: carboxymethylcellulose (CMC)) 114 % of control; (endpoint: mean survival time, dose: 5.0 mg/kg/injection, schedule: Q01DX015 (ip), vehicle: carboxymethylcellulose (CMC)) 95 % of control; (endpoint: mean survival time, dose: 10.0 mg/kg/injection, schedule: Q01DX001 (ip), vehicle: carboxymethylcellulose (CMC)) 111 % of control.
For the compound `O=C(OC1CCCC2CCCC21)c1ccc([N+](=O)[O-])cc1` (centres undefined), the T/C reads like this: under setting [13], 93 % of control; under setting [14], 95 % of control; (endpoint: mean survival time, dose: 400.0 mg/kg/injection, schedule: Q01DX001 (ip), vehicle: carboxymethylcellulose (CMC)) 98 % of control.
As for `BrC[P+](c1ccccc1)(c1ccccc1)c1ccccc1`, the T/C runs as follows: (endpoint: mean survival time, dose: 3.12 mg/kg/injection, schedule: Q04DX002 (ip), vehicle: saline) 108 % of control; (endpoint: mean survival time, dose: 6.25 mg/kg/injection, schedule: Q04DX002 (ip), vehicle: saline) 104 % of control; (endpoint: mean survival time, dose: 12.5 mg/kg/injection, schedule: Q04DX002 (ip), vehicle: saline) 105 % of control and 112 % of control.
